# pEC50: −log10 of the molar value. Entries after “also recorded” stand apart in the source; their conditions may differ.
# Columns and labels:
# coronin 1 promoter = assay: EC50 analysis for coronin 1 promoter driven GFP inhibition by flow cytometry in RBL cells; format: cell-based; conditions: for rel. potency GFP inhibition: [EC50 GFP inhibition 13a]/[EC50 GFP inhibition compound of interest], 13a = 1.00; for coronin 1 promoter activity as assessed by GFP reduction: Amlodipine 3.125 μM, verapamil 8 μM, 48 h
# Method: RBL cells that had been incubated with the indicated calcium channel blockers (amlodipine (3.125 μM) and verapamil (8 μM) concentrations for 48 h were analyzed by flow cytometry for any alteration in coronin 1 promoter driven GFP fluorescence. The results reveal no effect of calcium channel blockers on coronin 1 promoter activity (FIG. 4).
# (§1) RBL cells expressing GFP under coronin 1 promoter and optionally with RBL cells expressing RFP under CMV promoter were mixed in equal numbers and incubated with the compounds at indicated concentrations for 48-65 h and analyzed by flow cytometry for alteration in coronin 1 promoter (GFP fluorescence), CMV promoter (RFP fluorescence) values. In addition, the cells were labelled with live-dead marker for assessing cell viability status by flow cytometry. Cycloheximide (CHX) serves as positive control and DMSO serves as negative controls. Effective Concentration (EC50) values for coronin 1 promoter inhibition via GFP fluorescence analysis, non-specific promoter inhibition via CMV promoter driven-RFP fluorescence analysis and cell viability via live/dead staining as a measure for toxicity in flow cytometry for compounds (10-22 and 50a-65a) are shown in Table 6 and Table 7. Based on the EC50 analysis of the inhibition of coronin 1 promoter driven GFP fluorescence the (4S,7R)-configurated eutomers were identified (Structures FIG. 9A-C). This is exemplified for compounds containing two stereocenters by eutomers 11c and 13a. […] Subsequent EC50 evaluations (Table 7) were performed with compound 13a as standard for relative potency normalized to a value of 1.00 (relative potency calculated as [EC50 GFP inhibition 13a]/[EC50 GFP inhibition compound of interest]).
# RBL cells = assay: Cell viability by live-dead staining (cytotoxicity), flow cytometry; format: cell-based, Rat; conditions: Rattus norvegicus, RBL, cell viability via live/dead staining, 48-65 h, read-out: EC50 Toxicity
# Method: as §1
Compound,rel. potency GFP inhibition (coronin 1 promoter),further results
"COc1ccccc1[C@@H]1CC(=O)C2=C(C1)NC(C)=C(C(=O)OC1CCOCC1)[C@H]2c1cccc(O)c1 [13e, tetrahydro-2H-pyran-4-yl-4-(3-hydroxyphenyl)-7-(2-methoxyphenyl)-2-methyl-5-oxo-1,4,5,6,7,8-hexahydro-3-quinolinecarboxylate]",<0.01,–
"CCC(CC)COC(=O)C1=C(C)NC2=C(C(=O)C[C@H](c3ccccc3OC)C2)[C@@H]1c1cccc(O)c1 [61a, 2-ethylbutyl (4S, 7R)-4-(3-hydroxyphenyl)-7-(2-methoxyphenyl)-2-methyl-5-oxo-1,4,5,6,7,8-hexahydroquinoline-3-carboxylate]",0.10,–
"COc1ccccc1[C@@H]1CC(=O)C2=C(C1)NC(C)=C(C(=O)OC[C@@H]1CCCO1)[C@@H]2c1cccc(O)c1 [12f, tetrahydro-2-furanylmethyl-4-(3-hydroxyphenyl)-7-(2-methoxyphenyl)-2-methyl-5-oxo-1,4,5,6,7,8-hexahydro-3-quinolinecarboxylate]",–,"pEC50 (coronin 1 promoter; RBL, RBL cells, 48-65 h, flow cytometry): 5.60; pEC50 (RBL cells): < 5.70"
"COc1ccccc1[C@H]1CC(=O)C2=C(C1)NC(C)=C(C(=O)OC1CC3CCC(C1)O3)[C@H]2c1cccc(O)c1 (stereo partly drawn) [53a, 8-oxabicyclo[3.2.1]octan-3-yl (4S, 7R)-4-(3-hydroxyphenyl)-7-(2-methoxyphenyl)-2-methyl-5-oxo-1,4,5,6,7,8-hexahydroquinoline-3-carboxylate]",1.42,–
"COc1ccccc1[C@@H]1CC(=O)C2=C(C1)NC(C)=C(C(=O)OC1CCOCC1)[C@@H]2c1cccc(O)c1 [13d, tetrahydro-2H-pyran-4-yl-4-(3-hydroxyphenyl)-7-(2-methoxyphenyl)-2-methyl-5-oxo-1,4,5,6,7,8-hexahydro-3-quinolinecarboxylate]",0.09,–
"COc1ccccc1[C@H]1CC(=O)C2=C(C1)NC(C)=C(C(=O)O[C@@H]1CCOC1)[C@H]2c1cccc(O)c1 [50b, tetrahydrofuran-3-yl (4S, 7R)-4-(3-hydroxyphenyl)-7-(2-methoxyphenyl)-2-methyl-5-oxo-1,4,5,6,7,8-hexahydroquinoline-3-carboxylate]",1.23,–
"COc1ccccc1[C@H]1CC(=O)C2=C(C1)NC(C)=C(C(=O)OC1CCOCC1)[C@@H]2c1cccc(O)c1 [13f, tetrahydro-2H-pyran-4-yl-4-(3-hydroxyphenyl)-7-(2-methoxyphenyl)-2-methyl-5-oxo-1,4,5,6,7,8-hexahydro-3-quinolinecarboxylate]",<0.01,–
"COc1ccccc1[C@H]1CC(=O)C2=C(C1)NC(C)=C(C(=O)OC1CCCOCC1)[C@H]2c1cccc(O)c1 (mixture of isomers) [54a, oxepan-4-yl 4-(3-hydroxyphenyl)-7-(2-methoxyphenyl)-2-methyl-5-oxo-1,4,5,6,7,8-hexahydroquinoline-3-carboxylate]",0.88,–
"COc1ccccc1[C@H]1CC(=O)C2=C(C1)NC(C)=C(C(=O)OC1CCCCC1)[C@H]2c1cccc(O)c1 [57a, cyclohexyl (4S, 7R)-4-(3-hydroxyphenyl)-7-(2-methoxyphenyl)-2-methyl-5-oxo-1,4,5,6,7,8-hexahydroquinoline-3-carboxylate]",0.24,–
"COc1ccccc1[C@H]1CC(=O)C2=C(C1)NC(C)=C(C(=O)OC1CC(C)(C)OC(C)(C)C1)[C@H]2c1cccc(O)c1 [52a, 2,2,6,6-tetramethyltetrahydro-2H-pyran-4-yl (4S, 7R)-4-(3-hydroxyphenyl)-7-(2-methoxyphenyl)-2-methyl-5-oxo-1,4,5,6,7,8-hexahydroquinoline-3-carboxylate]",0.62,–
"CCOC(=O)C1=C(COCCN)NC(C)=C(C(=O)OC)C1c1ccccc1Cl (stereo not drawn) [Amlodipine, reference compound]",–,coronin 1 promoter activity as assessed by GFP reduction (coronin 1 promoter; flow cytometry): no effect
"COc1ccccc1[C@H]1CC(=O)C2=C(C1)NC(C)=C(C(=O)O[C@H]1CO[C@H]3OCC[C@H]31)[C@H]2c1cccc(O)c1 [55a, (3R,3aS,6aR)-hexahydrofuro[2,3-b]furan-3-yl (4S, 7R)-4-(3-hydroxyphenyl)-7-(2-methoxyphenyl)-2-methyl-5-oxo-1,4,5,6,7,8-hexahydroquinoline-3-carboxylate]",0.61,–
"COc1ccccc1[C@H]1CC(=O)C2=C(C1)NC(C)=C(C(=O)OC1CCOCC1)C2c1ccc(F)c(O)c1 (mixture of isomers) [66b, tetrahydro-2H-pyran-4-yl 4-(4-fluoro-3-hydroxyphenyl)-7-(2-methoxyphenyl)-2-methyl-5-oxo-1,4,5,6,7,8-hexahydroquinoline-3-carboxylate]",0.25,–
"COc1ccccc1[C@H]1CC(=O)C2=C(C1)NC(C)=C(C(=O)OC[C@H]1CCCO1)[C@H]2c1cccc(O)c1 [12g, tetrahydro-2-furanylmethyl (4S, 7R)-4-(3-hydroxyphenyl)-7-(2-methoxyphenyl)-2-methyl-5-oxo-1,4,5,6,7,8-hexahydro-3-quinolinecarboxylate]",1.00,–
"COc1ccccc1[C@H]1CC(=O)C2=C(C1)NC(C)=C(C(=O)OCC(C)(C)C)[C@H]2c1cccc(O)c1 [60a, neopentyl (4S, 7R)-4-(3-hydroxyphenyl)-7-(2-methoxyphenyl)-2-methyl-5-oxo-1,4,5,6,7,8-hexahydroquinoline-3-carboxylate]",0.20,–
"COc1ccccc1[C@H]1CC(=O)C2=C(C1)NC(C)=C(C(=O)OC1(C)CCOCC1)[C@H]2c1cccc(O)c1 [51a, 4-methyltetrahydro-2H-pyran-4-yl (4S, 7R)-4-(3-hydroxyphenyl)-7-(2-methoxyphenyl)-2-methyl-5-oxo-1,4,5,6,7,8-hexahydroquinoline-3-carboxylate]",1.13,–
"COc1ccccc1[C@H]1CC(=O)C2=C(C1)NC(C)=C(C(=O)O[C@H]1CCOC1)[C@H]2c1cccc(O)c1 [50a, tetrahydrofuran-3-yl (4S, 7R)-4-(3-hydroxyphenyl)-7-(2-methoxyphenyl)-2-methyl-5-oxo-1,4,5,6,7,8-hexahydroquinoline-3-carboxylate]",0.73,–
"CCOCCOCCOC(=O)C1=C(C)NC2=C(C(=O)C[C@H](c3ccccc3OC)C2)[C@@H]1c1cccc(O)c1 [64a, 2-(2-ethoxyethoxy)ethyl (4S, 7R)-4-(3-hydroxyphenyl)-7-(2-methoxyphenyl)-2-methyl-5-oxo-1,4,5,6,7,8-hexahydroquinoline-3-carboxylate]",0.62,–
"COc1ccccc1C1CC(=O)C2=C(C1)NC(C)=C(C(=O)OC1CCOCC1)C2c1ccc(F)c(O)c1F (racemic) [67b, tetrahydro-2H-pyran-4-yl 4-(2,4-difluoro-3-hydroxyphenyl)-7-(2-methoxyphenyl)-2-methyl-5-oxo-1,4,5,6,7,8-hexahydroquinoline-3-carboxylate]",0.25,–
"COc1ccccc1[C@H]1CC(=O)C2=C(C1)NC(C)=C(C(=O)OCCCC(C)(C)C)[C@H]2c1cccc(O)c1 [63a, 4,4-dimethylpentyl (4S, 7R)-4-(3-hydroxyphenyl)-7-(2-methoxyphenyl)-2-methyl-5-oxo-1,4,5,6,7,8-hexahydroquinoline-3-carboxylate]",0.07,–
"CCCCOC(=O)C1=C(C)NC2=C(C(=O)C[C@H](c3ccccc3OC)C2)[C@@H]1c1cccc(O)c1 [59a, butyl (4S, 7R)-4-(3-hydroxyphenyl)-7-(2-methoxyphenyl)-2-methyl-5-oxo-1,4,5,6,7,8-hexahydroquinoline-3-carboxylate]",0.18,–
"COc1ccc(CCN(C)CCCC(C#N)(c2ccc(OC)c(OC)c2)C(C)C)cc1OC (stereo not drawn) [verapamil, reference compound]",–,coronin 1 promoter activity as assessed by GFP reduction (coronin 1 promoter; flow cytometry): no effect; also recorded: not inhibiting coronin 1 promoter activity
"CCC(C)(C)COC(=O)C1=C(C)NC2=C(C(=O)C[C@H](c3ccccc3OC)C2)[C@@H]1c1cccc(O)c1 [62a, 2,2-dimethylbutyl (4S, 7R)-4-(3-hydroxyphenyl)-7-(2-methoxyphenyl)-2-methyl-5-oxo-1,4,5,6,7,8-hexahydroquinoline-3-carboxylate]",0.10,–
"CCCCCCOCCOCCOCCOC(=O)C1=C(C)NC2=C(C(=O)C[C@H](c3ccccc3OC)C2)[C@@H]1c1cccc(O)c1 [65a, 2-(2-(2-(hexyloxy)ethoxy)ethoxy)ethyl (4S, 7R)-4-(3-hydroxyphenyl)-7-(2-methoxyphenyl)-2-methyl-5-oxo-1,4,5,6,7,8-hexahydroquinoline-3-carboxylate]",0.12,–
"CCOC(=O)C1=C(C)NC2=C(C(=O)C[C@H](c3ccccc3OC)C2)[C@@H]1c1cccc(O)c1 [58a, ethyl (4S, 7R)-4-(3-hydroxyphenyl)-7-(2-methoxyphenyl)-2-methyl-5-oxo-1,4,5,6,7,8-hexahydroquinoline-3-carboxylate]",0.36,–
"COc1ccccc1[C@H]1CC(=O)C2=C(C1)NC(C)=C(C(=O)OC1CCCC1)[C@H]2c1cccc(O)c1 [56a, cyclopentyl (4S, 7R)-4-(3-hydroxyphenyl)-7-(2-methoxyphenyl)-2-methyl-5-oxo-1,4,5,6,7,8-hexahydroquinoline-3-carboxylate]",0.21,–

# — US20260102387A1, “IMMUNOSUPPRESSIVE COMPOUNDS” (UNIVERSITÄT BASEL, priority 2022, published 2026)
